Assay results reported in ChEMBL document CHEMBL3046945, “Enantioselective Antifungal Activity of Pefurazoate against Pathogens of Rice Seed Diseases” (J Pestic Sci, 2001).

Legend:
Fusarium fujikuroi [1] = experiment: Inhibition of ergosterol biosynthesis in benzimidazole-sensitive Fusarium fujikuroi assessed as incorporation of [2-14C] acetate into 24-methylenedihydrolanosterol at 0.24 ppm by autoradiography; assay type: functional
Pyricularia oryzae = experiment: Antifungal activity against Magnaporthe oryzae assessed as diameter of mycelial colony after 3 to 4 days by agar dilution method; assay type: functional, organism-based
Fusarium fujikuroi [2] = experiment: Inhibition of ergosterol biosynthesis in benzimidazole-sensitive Fusarium fujikuroi assessed as incorporation of [2-14C] acetate into lipid fraction at 0.24 ppm by autoradiography; assay type: functional
Fusarium fujikuroi [3] = experiment: Inhibition of ergosterol biosynthesis in benzimidazole-sensitive Fusarium fujikuroi assessed as incorporation of [2-14C] acetate into ergosterol at 0.24 ppm by autoradiography; assay type: functional
Fusarium fujikuroi [4] = experiment: Inhibition of ergosterol biosynthesis in benzimidazole-sensitive Fusarium fujikuroi assessed as incorporation of [2-14C] acetate into total lipids at 0.24 ppm by autoradiography; assay type: functional
Bipolaris oryzae = experiment: Antifungal activity against Bipolaris oryzae assessed as diameter of mycelial colony after 3 to 4 days by agar dilution method; assay type: functional, organism-based
Fusarium fujikuroi [5] = experiment: Antifungal activity against benzimidazole-sensitive Fusarium fujikuroi assessed as diameter of mycelial colony after 3 to 4 days by agar dilution method; assay type: functional, organism-based
Fusarium fujikuroi [6] = experiment: Inhibition of ergosterol biosynthesis in benzimidazole-sensitive Fusarium fujikuroi assessed as incorporation of [2-14C] acetate into 24-methylenedihydrolanosterol at 7.35 ppm by autoradiography; assay type: functional
Fusarium fujikuroi [7] = experiment: Inhibition of ergosterol biosynthesis in benzimidazole-sensitive Fusarium fujikuroi assessed as incorporation of [2-14C] acetate into lipid fraction at 7.35 ppm by autoradiography; assay type: functional
Fusarium fujikuroi [8] = experiment: Inhibition of ergosterol biosynthesis in benzimidazole-sensitive Fusarium fujikuroi assessed as incorporation of [2-14C] acetate into ergosterol at 7.35 ppm by autoradiography; assay type: functional
Fusarium fujikuroi [9] = experiment: Inhibition of ergosterol biosynthesis in benzimidazole-sensitive Fusarium fujikuroi assessed as incorporation of [2-14C] acetate into total lipids at 7.35 ppm by autoradiography; assay type: functional

Structure (SMILES)	inhibition at 0.24 ppm (Fusarium fujikuroi [1])	EC50 (Pyricularia oryzae)	inhibition at 0.24 ppm (Fusarium fujikuroi [2])	inhibition at 0.24 ppm (Fusarium fujikuroi [3])	inhibition at 0.24 ppm (Fusarium fujikuroi [4])	EC50 (Bipolaris oryzae)	EC50 (Fusarium fujikuroi [5])	inhibition at 7.35 ppm (Fusarium fujikuroi [6])	inhibition at 7.35 ppm (Fusarium fujikuroi [7])	inhibition at 7.35 ppm (Fusarium fujikuroi [8])	inhibition at 7.35 ppm (Fusarium fujikuroi [9])
C=CCCCOC(=O)[C@H](CC)N(Cc1ccco1)C(=O)n1ccnc1 [(S)-(-)-pefurazoate]	13.9%	0.61 ppm	84.8%	1.3%	1.3%	0.41 ppm	0.24 ppm	–	–	–	–
C=CCCCOC(=O)[C@@H](CC)N(Cc1ccco1)C(=O)n1ccnc1 [(R)-(+)-pefurazoate]	–	3.21 ppm	–	–	–	3.89 ppm	7.35 ppm	14.2%	84.5%	1.3%	1.6%
C=CCCCOC(=O)C(CC)N(Cc1ccco1)C(=O)n1ccnc1 (racemic) [Pefurazoate]	–	0.89 ppm	–	–	–	0.84 ppm	0.49 ppm	–	–	–	–
